SMILES strings stand for the structures.

The subject of series [1] is influenza virus A/Taiwan/1/86 (H1N1). Kind of series: organism not typed. The class given is cell-based. Conditions: MDCK, 72 h, MDCK cells infected with influenza A/Taiwan/1/86 (H1N1); three days post-virus exposure; CPE by ATP levels.
The next series is described as follows: in vitro. The note with it: dog.

In turn, `O=C(N[C@H]1CCC[C@@H](Nc2nc(-c3c[nH]c4ncncc34)ncc2F)C1)C1CCCCO1` (mixture of isomers) [Compound 38] yielded a concentration for half-maximal inhibition (IC50) in series [1] of 380 nM. In the series “in vitro”, this compound returned a CC50 at 3 days of over 25 µM.
On the same counts, the results for `O=C(O)[C@H]1C2CCC(CC2)[C@@H]1Nc1nc(-c2c[nH]c3ncncc23)ncc1F` (mixture of isomers) [Compound 54] are 460 nM and over 25 µM.
On the same counts, the results for `O=C(N[C@H]1CCC[C@@H](Nc2nc(-c3c[nH]c4ncncc34)ncc2F)C1)N1CCCC1` (racemic) [Compound 7] are 5 nM and over 25 µM.
On the same counts, the results for `O=C(N[C@H]1CCC[C@@H](Nc2nc(-c3c[nH]c4ncncc34)ncc2F)C1)c1ccn2nccc2n1` (racemic) [Compound 29] are 10 nM and over 25 µM.
Take `Cc1cc(C(=O)N[C@H]2CCC[C@@H](Nc3nc(-c4c[nH]c5ncncc45)ncc3F)C2)nn1C` (racemic) [Compound 30]: in series [1], the IC50 was 21 nM. In “in vitro”, this compound returned a CC50 at 3 days of over 25 µM.
On the same counts, the results for `O=C(Nc1ccccc1)N[C@H]1CCC[C@@H](Nc2nc(-c3c[nH]c4ncncc34)ncc2F)C1` (racemic) [Compound 31] are 21 nM and over 25 µM.
On the same counts, the results for `Cc1cc(C(=O)N[C@H]2CCC[C@@H](Nc3nc(-c4c[nH]c5ncncc45)ncc3F)C2)on1` (racemic) [Compound 32] are 35 nM and over 25 µM.
`O=C(N[C@H]1CCC[C@@H](Nc2nc(-c3c[nH]c4ncncc34)ncc2F)C1)c1ccncc1` (racemic) [Compound 33] yielded an IC50 in series [1] of 42 nM. In “in vitro”, this compound gave a CC50 at 3 days of over 100 µM.
In turn, `Cc1cc(C(=O)N[C@@H]2CCC[C@@H](Nc3nc(-c4c[nH]c5ncncc45)ncc3F)C2)no1` (racemic) [Compound 34] displayed a 50% inhibitory concentration (IC50) in series [1] of 40 nM. The compound further yielded a CC50 at 3 days in the series “in vitro” of over 25 µM.
The matching figures for `O=C(N[C@H]1CCC[C@@H](Nc2nc(-c3c[nH]c4ncncc34)ncc2F)C1)c1ccccn1` (racemic) [Compound 35]: 2 nM and over 25 µM.
Consider `Cc1nc(C(=O)N[C@H]2CCC[C@@H](Nc3nc(-c4c[nH]c5ncncc45)ncc3F)C2)c(C)o1` (racemic) [Compound 36], for which the 50% inhibitory concentration (IC50) in series [1] amounted to 40 nM. Besides, the CC50 at 3 days in the series “in vitro” was over 25 µM.
On the same counts, the results for `O=C(N[C@H]1CCC[C@@H](Nc2nc(-c3c[nH]c4ncncc34)ncc2F)C1)C1CCC1` (racemic) [Compound 37] are 205 nM and over 25 µM.
In the case of `O=C(N[C@H]1CCC[C@@H](Nc2nc(-c3c[nH]c4ncncc34)ncc2F)C1)C1CC1` (racemic) [Compound 39], the 50% inhibitory concentration (IC50) in series [1] is 114 nM. The compound also had a CC50 at 3 days in “in vitro” of over 25 µM.
The matching figures for `Cc1noc(C)c1C(=O)N[C@H]1CCC[C@@H](Nc2nc(-c3c[nH]c4ncncc34)ncc2F)C1` (racemic) [Compound 40]: 190 nM and over 25 µM.
On the same counts, the results for `CC(C)NC(=O)N[C@H]1CCC[C@@H](Nc2nc(-c3c[nH]c4ncncc34)ncc2F)C1` (racemic) [Compound 41] are 319 nM and over 25 µM.
The matching figures for `Cn1cccc1C(=O)N[C@H]1CCC[C@@H](Nc2nc(-c3c[nH]c4ncncc34)ncc2F)C1` (racemic) [Compound 45]: 4 nM and over 25 µM.
As for `O=C(N[C@H]1CCC[C@@H](Nc2nc(-c3c[nH]c4ncncc34)ncc2F)C1)c1ccno1` (racemic) [Compound 47], the 50% inhibitory concentration (IC50) in series [1] came to 11 nM. In addition, in “in vitro”, the CC50 at 3 days is over 25 µM.
In turn, `O=C(N[C@H]1CCC[C@@H](Nc2nc(-c3c[nH]c4ncncc34)ncc2F)C1)c1cccnc1` (racemic) [Compound 49] came in with an IC50 in series [1] of 46 nM. Besides, the CC50 at 3 days in “in vitro” was over 25 µM.
On the same counts, the results for `CC(C)(C)[C@@H](CO)Nc1nc(-c2c[nH]c3ncncc23)ncc1F` (racemic) [Compound 55] are 550 nM and over 25 µM.
On the same counts, the results for `COC(=O)N[C@H]1CCC[C@@H](Nc2nc(-c3c[nH]c4ncncc34)ncc2F)C1` (racemic) [Compound 56] are 600 nM and over 25 µM.
On the same counts, the results for `O[C@H]1CCCC[C@@H]1Nc1nc(-c2c[nH]c3ncncc23)ncc1F` (racemic) [Compound 58] are 630 nM and over 100 µM.
As to `CCC(=O)N[C@H]1CCC[C@@H](Nc2nc(-c3c[nH]c4ncncc34)ncc2F)C1` (racemic) [Compound 62], half-maximal inhibition in series [1] (IC50) required 700 nM. In addition, the CC50 at 3 days in “in vitro” is over 25 µM.
The matching figures for `O=C(O)c1ccccc1C(=O)N[C@H]1CCC[C@@H](Nc2nc(-c3c[nH]c4ncncc34)ncc2F)C1` (racemic) [Compound 63]: 720 nM and over 25 µM.
On the same counts, the results for `CC(C)(C)C(=O)N[C@H]1CCC[C@@H](Nc2nc(-c3c[nH]c4ncncc34)ncc2F)C1` (racemic) [Compound 64] are 760 nM and over 25 µM.
`COCC(=O)N[C@H]1CCC[C@@H](Nc2nc(-c3c[nH]c4ncncc34)ncc2F)C1` (racemic) [Compound 66]: in series [1], half-maximal inhibition (IC50) was put at 820 nM. In “in vitro”, the CC50 at 3 days is over 25 µM.
On the same counts, the results for `CC(C)C(=O)N[C@H]1CCC[C@@H](Nc2nc(-c3c[nH]c4ncncc34)ncc2F)C1` (racemic) [Compound 73] are 930 nM and over 25 µM.
The matching figures for `N#Cc1cc(F)c(N[C@@H]2CCC[C@H](NC(=O)N3CCCC3)C2)nc1-c1c[nH]c2ncncc12` (stereo in doubt) [Compound 9, (+/−)-N-((cis)-3-((5-cyano-3-fluoro-6-(7H-pyrrolo[2,3-d]pyrimidin-5-yl)pyridin-2-yl)amino)cyclohexyl)pyrrolidine-1-carboxamide]: 9 nM and 8.74 µM.
In series [1], `N#Cc1cc(F)c(N[C@H]2CCC[C@@H](NC(=O)N3CCCC3)C2)nc1-c1c[nH]c2ncncc12` (stereo in doubt) [Compound 93] showed a half-maximal inhibitory concentration (IC50) of 6 nM. In “in vitro”, the CC50 at 3 days is over 25 µM.
On the same counts, the results for `Cn1cnc(C(=O)N[C@@H]2CCC[C@@H](Nc3nc(-c4c[nH]c5ncncc45)c(C#N)cc3F)C2)c1` [Compound 12] are 30 nM and over 25 µM.
On the same counts, the results for `Cn1cnc(C(=O)N[C@H]2CCC[C@@H](Nc3nc(-c4c[nH]c5ncncc45)ncc3F)C2)c1` [Compound 14] are 47 nM and over 25 µM.
On the same counts, the results for `Cn1cnc(C(=O)N[C@H]2CCC[C@@H](Nc3nc(-c4c[nH]c5ncncc45)c(F)cc3F)C2)c1` [Compound 16] are 36 nM and over 25 µM.
As to `CC(C)(C)C(CC(=O)O)Nc1nc(-c2c[nH]c3ncncc23)c(C(F)(F)F)cc1F` (stereo not shown) [Compound 18], in series [1], the IC50 worked out at 44 nM. In addition, in “in vitro”, the CC50 at 3 days is 2.48 µM.
The matching figures for `CC(C)(C)C(CC(=O)O)Nc1nc(-c2c[nH]c3ncncc23)c(C#N)cc1F` (stereo not shown) [Compound 21]: 106 nM and 13.4 µM.
As for `O=C(N[C@H]1CCC[C@@H](Nc2nc(-c3c[nH]c4ncncc34)c(F)cc2F)C1)N1CCCC1` [Compound 23], half-maximal inhibition in series [1] (IC50) required 33 nM. Further, in the series “in vitro”, the CC50 at 3 days was over 25 µM.
On the same counts, the results for `COC(=O)[C@H]1C2CCC(CC2)[C@@H]1Nc1nc(-c2c[nH]c3ncncc23)ncc1F` [Compound 24] are 325 nM and over 25 µM.

A word on the IC50: it is the point on the concentration scale where inhibition reaches its midpoint. A low value points to inhibition by little substance.
